What was measured:
[1] = tested on: edema; assay: Topical anti-inflammatory activity (croton oil ear edema); type: in vivo, Male mice of ddY-strain; conditions: for Anti-inflammatory activity ratio (A): ratio against clobetasol 17-propionate (=1), linear regression parallel test method, edema-repressing rate, topical application to mouse ear with croton oil, 5th hour after application; for R=A/B: anti-inflammatory activity ratio (A) divided by thymolytic activity ratio (B)
Experimental: 0.9 % sodium chloride, 0.4 % Tween 80, 0.5 % carboxymethyl cellulose and 0.9 % benzyl alcohol are dissolved or suspended in distilled water, which is used as a suspending medium. The compounds to be tested are dissolved in a mixture of the suspending medium : pyridine : diethyl ether = 1 : 4 : 5 and mixed with equal volume of diethyl ether containing 10 % croton oil and the mixture is used as the test liquid. Commercially available felt having a thickness of 5 mm is cut in 7mm x 7 mm square and adhered to ring tweezers using alkyl-a-cyanoacrylate. The felt is soaked in the test liquid and the liquid is applied to the right ear of the mouse by rubbing it with the felt at a fixed pressure without anesthesia. The left ear is left untreated. At 5th hours after application, mice are killed and both of the ears are cut and weighed. The rate (%) of increase in the weight of right ear against that of left ear is calculated as the edema ratio. Edema ratios obtained on the test compounds are compared with those obtained on control and edema-repressing rate is obtained.

[2] = tested on: thymus gland; conditions: rat, in vivo, sc, 11520 min
Experimental: 2) Experiment on thymolytic action
The compounds to be tested are dissolved in a liquid consisting of croton oil : cotton seed oil : ethanol = 1:89:10 and the solution is used for injection.
The rats are anesthesized by inhalation of ether and 20 ml of air are subcutaneously injected into hypodermic organ at the back of the rats using a thin injection needle to form an oval-shaped air cavity. After the rats recovered from anesthesia they are kept on normal food and water. At 8th days after injection, rats are killed by depletion and dissected. The thymus gland is taken out and the wet weight is measured. Thymus weights obtained on the test compounds are divided with those obtained on control, and thymus gland atrophy rate is obtained.
In each of the experiments on anti-inflammatory activity and thymolytic action, clobetasol 17-propionate and betamethasone 17,21-dipropionate are used standard compounds and anti-inflammatory activity ratio and thymolytic activity ratio against clobetasol 17-propionate are calculated using linear regression parallel test method.

| Molecule | Anti-inflammatory activity ratio (A) [1] | Thymolytic activity ratio (B) [2] | R=A/B [1] |
| --- | --- | --- | --- |
| 21-chloro-9a-fluoro-16a-methyl-l,4-pregnadiene-11β,17α-diol-3,6,20-trione 17a-methyl carbonate [Example 8] | 0.51 | – | – |
| 21-chloro-9α-fluoro-16β-mathyl-1,4-pregnadiene-11β,17α-diol-3,6,20-trione 17α-methyl carbonate [Example 2] | 3.0 | 0.018 | – |
| 21-chloro-9α-fluoro-16β-methyl-1,4-pregnadiene-11β,17α-diol-3,6,20-trione 17a-ethyl carbonate [Example 4] | 1.3 | 0.048 | – |
| CCC(=O)OCC(=O)[C@@]1(OC(=O)CC)[C@@H](C)C[C@H]2[C@@H]3CCC4=CC(=O)C=C[C@]4(C)[C@@]3(F)[C@@H](O)C[C@@]21C [Betamethasone 17,21-dipropionate, betamethasone 17,21-dipropionate, reference compound] | 0.080 | 0.030 | 2.7 |
| CCC(=O)O[C@]1(C(=O)CCl)[C@@H](C)C[C@H]2[C@@H]3CCC4=CC(=O)C=C[C@]4(C)[C@@]3(F)[C@@H](O)C[C@@]21C [Clobetasol 17-propionate, clobetasol 17-propionate, reference compound] | – | 1 | 1 |
| CCC(=O)O[C@]1(C(=O)CCl)[C@@H](C)C[C@H]2[C@@H]3CC(=O)C4=CC(=O)C=C[C@]4(C)[C@@]3(F)[C@@H](O)C[C@@]21C [Comparative Example 1, 21-chloro-9α-fluoro-16β-methyl-1,4-pregnadiene-11S,17a-diol-3,6,20-trione 17a-propionate, reference compound] | 0.53 | 0.29 | 1.8 |
| COC(=O)O[C@]1(C(=O)CCl)[C@@H](C)C[C@H]2[C@@H]3CCC4=CC(=O)C=C[C@]4(C)[C@@]3(F)[C@@H](O)C[C@@]21C [Comparative Example 2, 21-chloro-9α-fluoro-16β-methyl-1,4-pregnadiene-11β,17α-diol-3,20-dione 17a-methyl carbonate, reference compound] | 0.96 | 1.2 | 0.8 |
| CCCOC(=O)O[C@]1(C(=O)CCl)[C@@H](C)C[C@H]2[C@@H]3CC(=O)C4=CC(=O)C=C[C@]4(C)[C@@]3(F)[C@@H](O)C[C@@]21C [Example 6, 21-chloro-9α-fluoro-16β-methyl-1,4-pregnadiene-11β,17α-diol-3,6,20-trione 17a-propyl carbonate] | 0.74 | 0.24 | 3.1 |
| COC(=O)CCC(=O)O[C@]1(C(=O)CCl)[C@@H](C)C[C@H]2[C@@H]3CCC4=CC(=O)C=C[C@]4(C)[C@@]3(F)[C@@H](O)C[C@@]21C [Example 12, 21-chloro-9α-fluoro-16β-methyl-1,4-pregnadiene-11β,17α-diol-3,20-dione 17a-(6-methoxycarbonyl propionate)] | 1.3 | 0.072 | 18 |
| COC(=O)CCC(=O)O[C@]1(C(=O)CCl)[C@@H](C)C[C@H]2[C@@H]3CC(=O)C4=CC(=O)C=C[C@]4(C)[C@@]3(F)[C@@H](O)C[C@@]21C [Example 13, 21-chloro-9α-fluoro-16β-methyl-1,4-pregnadiene-11β,17α-diol-3,6,20-trione 17α-(β-methoxycarbonyl propionate)] | 1.0 | <0.01 | >100 |
| COC(=O)CCC(=O)O[C@]1(C(=O)CCl)[C@H](C)C[C@H]2[C@@H]3CCC4=CC(=O)C=C[C@]4(C)[C@@]3(F)[C@@H](O)C[C@@]21C [Example 14, 21-chloro-9α-fluoro-16α-msthyl-1,4-pregnadiene-11β,17α-diol-3,20-dione 17α-(β-methoxycarbonyl propionate)] | 0.2 | <0.01 | > 20 |
| CCOC(=O)CCCC(=O)O[C@]1(C(=O)CCl)[C@@H](C)C[C@H]2[C@@H]3CCC4=CC(=O)C=C[C@]4(C)[C@@]3(F)[C@@H](O)C[C@@]21C [Example 15, 21-chloro-9α-fluoro-16β-methyl-1,4-pregnadiene-11β,17α-diol-3,20-dione 17a-(y-ethoxycarbonyl butyrate)] | 0.68 | 0.012 | 57 |
| CCOC(=O)CCC(=O)O[C@]1(C(=O)CCl)[C@@H](C)C[C@H]2[C@@H]3CCC4=CC(=O)C=C[C@]4(C)[C@@]3(F)[C@@H](O)C[C@@]21C [Example 17, 21-chloro-9α-fluoro-16β-methyl-1,4-pregnadien-11β,17α-diol-3,20-dione 17α-(β-ethoxycarbonyl propionate)] | 0.56 | 0.007 | 80 |
